From patent US7235583B1, “Fatty acid-anticancer conjugates and uses thereof” (Luitpold Pharmaceuticals, Inc.,, priority 1999, dated 2007)

Experiments:
Assay type in all cases: in vivo
[1] = system: mouse lung tumor line M (Madison) 109; experiment: Taxoprexin and paclitaxel against M 109 lung carcinoma in mice, treatment from day 4 (tumor about 30 mg); settings: days 4 through 8, tumor about 30 mg at start
Description: Syngeneic mice were injected with mouse lung tumor line M (Madison) 109 sub-cutaneously in the flank. […] Both drugs were dissolved in 10% cremophor EL/10% ethanol/80% saline. Tumor volume was estimated from tumor width and length. […] (FIG. 1)

[2] = Plasma and tumor concentrations of paclitaxel in mice bearing M 109 or M 5076 tumors; settings: for time for which levels of paclitaxel in tumors remain stable: tumors treated with the named drug
Description: The drug was dissolved in 10% cremophor EL/10% ethanol/80% saline. Mice were sacrificed and tumors immediately excised as a function of time after injecting the drug. Tumor tissue was homogenized and paclitaxel extracted. […] Blood was collected at the same time intervals and the amount of paclitaxel determined. […] Each data point is the mean of three measurements (n=3); the error bar is one standard deviation.

[3] = system: mouse lung tumor line M (Madison) 109; experiment: Taxoprexin and paclitaxel against M 109 lung carcinoma in mice, treatment from day 5 (tumors 300 mg); settings: tumors 300 mg at start
Description: Syngeneic mice were injected with mouse lung tumor line M (Madison) 109 sub-cutaneously in the flank. […] Both drugs were dissolved in 10% cremophor EL/10% ethanol/80% saline. Tumor volume was estimated from tumor width and length. […] (FIG. 2)

[4] = system: human NCI-H522 lung tumor; experiment: Response of human NCI-H522 lung tumor in nude mice; settings: day 15 to 19 after implantation
Description: The tumors were implanted sub-cutaneously. Tumor mass was determined by calculation from tumor length and width. The drugs were dissolved in 12.5% cremophor EL/12.5% ethanol/75% saline and delivered i.v. into the tail vein, once a day for 5 days, from day 15 to 19 after tumor implantation. […] (FIG. 3)

human HCT colon tumor = experiment: Cure of human HCT colon tumor in mice; settings: HCT is a paclitaxel resistant tumor
[5] = Dose comparisons (MTD) of taxoprexin and paclitaxel in various species; settings: mice, rats and dogs
Description: Calculation of MTD in animals may be based on a number of physiological parameters, such as death, particular toxicities, drug induced weight loss. Using death as an endpoint, the MTD may be the dose given test animals in which each member of the test group survived. Using toxicity as an endpoint, the MTD may be the dose at which moderate but not severe toxicity is observed. Using weight loss as an endpoint, the MTD may be the dose above which a certain percent change in body weight is induced.

[6] = paclitaxel 20 mg/kg/day x 5 days i.v. bolus from day 5

Row | SMILES | retarded tumor growth (duration) ([1]; paclitaxel 20 mg/kg/day x 5 days i.v. bolus) | t½ in tumor ([2]; paclitaxel in the same tumor system) | time for which levels of paclitaxel in tumors remain stable [2] | LCK [3, 6] | retarded tumor growth (duration) [3, 6] | mice with all measurable tumors eliminated ([4]; 20 mg/kg/day x 5 days i.v.) | mice cured of tumor (human HCT colon tumor) | mice with all measurable tumors completely eliminated ([1]; taxoprexin 120 mg/kg/day x 5 days i.v. bolus) | toxicity compared with paclitaxel [5] | plasma concentration of paclitaxel derived from taxoprexin ([2]; after 24 hours, i.v. bolus 50 mg/kg taxoprexin) | tumor concentration of paclitaxel derived from taxoprexin ([2]; after 24 hours, i.v. bolus 50 mg/kg taxoprexin, M109 or M5076 tumors) | mice with all measurable tumors completely eliminated ([3]; taxoprexin 80 mg/kg/day x 5 days i.v. bolus from day 5) | mice with all measurable tumors completely eliminated (C/T) ([3]; taxoprexin 120 mg/kg/day x 5 days i.v. bolus from day 5) | mice with all measurable tumors eliminated ([4]; 50 mg/kg/day x 5 days i.v.)
1 | CC(=O)O[C@H]1C(=O)[C@@]2(C)[C@H]([C@H](OC(=O)c3ccccc3)[C@]3(O)C[C@H](OC(=O)[C@H](O)[C@@H](NC(=O)c4ccccc4)c4ccccc4)C(C)=C1C3(C)C)[C@]1(OC(C)=O)CO[C@@H]1C[C@@H]2O [paclitaxel, reference compound] | about four days | < 8 h | less than 8 hours | 1.0 | about four days | 10/10 | 0/8 |  |  |  |  |  |  | 
2 | CC/C=C\C/C=C\C/C=C\C/C=C\C/C=C\C/C=C\CCC(=O)O[C@@H](C(=O)O[C@H]1C[C@@]2(O)[C@@H](OC(=O)c3ccccc3)[C@@H]3[C@]4(OC(C)=O)CO[C@@H]4C[C@H](O)[C@@]3(C)C(=O)[C@H](OC(C)=O)C(=C1C)C2(C)C)[C@@H](NC(=O)c1ccccc1)c1ccccc1 [taxoprexin] |  |  | 24 h |  |  |  | 3/8 | eight out of eight | less toxic | 70 nM | about 3 μM | four out of seven | 7/8 | 10/10
